Test results published in ChEMBL document CHEMBL5291721, “A preclinical secondary pharmacology resource illuminates target-adverse drug reaction associations of marketed drugs” (Nat Commun, 2023).

Legend:
Androgen receptor = target: T1, Androgen receptor (Rattus norvegicus, UniProt P15207); type: functional
T1 sequence (P15207 whole entry): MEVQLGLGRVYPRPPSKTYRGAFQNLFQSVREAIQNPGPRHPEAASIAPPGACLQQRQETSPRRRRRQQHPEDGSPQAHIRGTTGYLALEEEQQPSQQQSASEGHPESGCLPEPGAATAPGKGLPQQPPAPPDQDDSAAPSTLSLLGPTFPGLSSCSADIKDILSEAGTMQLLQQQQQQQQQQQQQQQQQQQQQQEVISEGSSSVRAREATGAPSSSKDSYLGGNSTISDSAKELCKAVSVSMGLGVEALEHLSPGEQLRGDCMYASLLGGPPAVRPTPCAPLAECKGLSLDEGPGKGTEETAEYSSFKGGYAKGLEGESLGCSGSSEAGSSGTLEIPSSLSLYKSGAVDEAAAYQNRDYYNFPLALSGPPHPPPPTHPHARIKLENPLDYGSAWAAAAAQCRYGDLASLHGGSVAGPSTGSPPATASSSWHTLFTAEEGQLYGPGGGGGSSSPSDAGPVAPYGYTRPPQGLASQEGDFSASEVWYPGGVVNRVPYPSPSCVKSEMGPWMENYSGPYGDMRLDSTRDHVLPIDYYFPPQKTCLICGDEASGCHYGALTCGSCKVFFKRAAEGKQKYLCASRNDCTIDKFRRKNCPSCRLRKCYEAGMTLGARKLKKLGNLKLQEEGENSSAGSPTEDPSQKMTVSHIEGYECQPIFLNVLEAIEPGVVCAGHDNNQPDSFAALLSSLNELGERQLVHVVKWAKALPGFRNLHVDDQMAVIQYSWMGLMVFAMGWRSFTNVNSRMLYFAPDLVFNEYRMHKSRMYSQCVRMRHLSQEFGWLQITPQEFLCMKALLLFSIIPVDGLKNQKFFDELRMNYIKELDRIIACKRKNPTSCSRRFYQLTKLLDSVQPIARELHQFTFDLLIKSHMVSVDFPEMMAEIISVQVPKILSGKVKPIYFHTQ

Histamine H1 receptor = Histamine H1 receptor (Homo sapiens, UniProt P35367); type: functional, cell-based
Sequence of Histamine H1 receptor (P35367 whole entry): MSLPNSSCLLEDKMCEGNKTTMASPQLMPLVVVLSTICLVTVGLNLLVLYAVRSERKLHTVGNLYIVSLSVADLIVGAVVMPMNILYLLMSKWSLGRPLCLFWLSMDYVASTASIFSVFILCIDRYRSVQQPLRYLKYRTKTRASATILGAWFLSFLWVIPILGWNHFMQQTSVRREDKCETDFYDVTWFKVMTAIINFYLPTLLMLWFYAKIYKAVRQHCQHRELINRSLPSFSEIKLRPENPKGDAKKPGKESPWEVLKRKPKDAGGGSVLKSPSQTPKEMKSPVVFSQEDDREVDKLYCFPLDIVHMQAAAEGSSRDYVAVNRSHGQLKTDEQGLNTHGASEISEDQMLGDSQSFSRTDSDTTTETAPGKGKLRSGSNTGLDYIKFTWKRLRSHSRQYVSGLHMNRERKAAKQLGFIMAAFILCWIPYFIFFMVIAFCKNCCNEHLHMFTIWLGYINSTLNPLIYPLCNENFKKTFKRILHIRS

[1] = target: T2, Prostaglandin G/H synthase 1 (Rattus norvegicus, UniProt Q63921); type: functional
T2 sequence (Q63921 whole entry): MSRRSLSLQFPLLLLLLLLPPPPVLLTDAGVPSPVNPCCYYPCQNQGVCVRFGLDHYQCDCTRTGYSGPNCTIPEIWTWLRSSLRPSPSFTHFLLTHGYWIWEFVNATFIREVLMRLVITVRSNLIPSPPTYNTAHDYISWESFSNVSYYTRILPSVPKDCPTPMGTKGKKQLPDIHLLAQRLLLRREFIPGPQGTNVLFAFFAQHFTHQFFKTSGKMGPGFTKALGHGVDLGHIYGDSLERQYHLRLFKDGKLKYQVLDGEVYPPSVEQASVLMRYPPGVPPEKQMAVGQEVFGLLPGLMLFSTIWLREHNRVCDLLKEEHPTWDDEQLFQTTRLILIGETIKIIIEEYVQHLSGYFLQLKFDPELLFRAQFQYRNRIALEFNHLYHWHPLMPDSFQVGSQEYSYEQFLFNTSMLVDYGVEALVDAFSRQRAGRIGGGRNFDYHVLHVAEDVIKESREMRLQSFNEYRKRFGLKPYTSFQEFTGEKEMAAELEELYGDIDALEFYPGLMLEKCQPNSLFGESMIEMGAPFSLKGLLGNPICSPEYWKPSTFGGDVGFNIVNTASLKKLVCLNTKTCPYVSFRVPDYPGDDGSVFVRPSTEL

D(1A) dopamine receptor [2] = target: T3, D(1A) dopamine receptor (Homo sapiens, UniProt P21728); type: functional, cell-based
T3 sequence (P21728 whole entry): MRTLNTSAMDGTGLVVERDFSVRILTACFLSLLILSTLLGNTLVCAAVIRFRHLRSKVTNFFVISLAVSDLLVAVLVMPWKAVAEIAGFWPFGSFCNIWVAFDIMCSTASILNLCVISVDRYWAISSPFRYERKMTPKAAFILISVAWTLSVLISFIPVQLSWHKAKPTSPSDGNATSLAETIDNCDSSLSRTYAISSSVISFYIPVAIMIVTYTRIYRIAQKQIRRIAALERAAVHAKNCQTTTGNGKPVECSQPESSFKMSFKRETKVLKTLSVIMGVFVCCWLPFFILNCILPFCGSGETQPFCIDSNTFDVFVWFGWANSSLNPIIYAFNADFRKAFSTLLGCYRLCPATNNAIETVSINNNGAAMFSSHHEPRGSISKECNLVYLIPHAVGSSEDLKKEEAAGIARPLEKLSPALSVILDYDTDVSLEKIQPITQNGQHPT

[3] = target: Epidermal growth factor receptor (Homo sapiens, UniProt P00533); type: functional
Sequence of Epidermal growth factor receptor (P00533 whole entry): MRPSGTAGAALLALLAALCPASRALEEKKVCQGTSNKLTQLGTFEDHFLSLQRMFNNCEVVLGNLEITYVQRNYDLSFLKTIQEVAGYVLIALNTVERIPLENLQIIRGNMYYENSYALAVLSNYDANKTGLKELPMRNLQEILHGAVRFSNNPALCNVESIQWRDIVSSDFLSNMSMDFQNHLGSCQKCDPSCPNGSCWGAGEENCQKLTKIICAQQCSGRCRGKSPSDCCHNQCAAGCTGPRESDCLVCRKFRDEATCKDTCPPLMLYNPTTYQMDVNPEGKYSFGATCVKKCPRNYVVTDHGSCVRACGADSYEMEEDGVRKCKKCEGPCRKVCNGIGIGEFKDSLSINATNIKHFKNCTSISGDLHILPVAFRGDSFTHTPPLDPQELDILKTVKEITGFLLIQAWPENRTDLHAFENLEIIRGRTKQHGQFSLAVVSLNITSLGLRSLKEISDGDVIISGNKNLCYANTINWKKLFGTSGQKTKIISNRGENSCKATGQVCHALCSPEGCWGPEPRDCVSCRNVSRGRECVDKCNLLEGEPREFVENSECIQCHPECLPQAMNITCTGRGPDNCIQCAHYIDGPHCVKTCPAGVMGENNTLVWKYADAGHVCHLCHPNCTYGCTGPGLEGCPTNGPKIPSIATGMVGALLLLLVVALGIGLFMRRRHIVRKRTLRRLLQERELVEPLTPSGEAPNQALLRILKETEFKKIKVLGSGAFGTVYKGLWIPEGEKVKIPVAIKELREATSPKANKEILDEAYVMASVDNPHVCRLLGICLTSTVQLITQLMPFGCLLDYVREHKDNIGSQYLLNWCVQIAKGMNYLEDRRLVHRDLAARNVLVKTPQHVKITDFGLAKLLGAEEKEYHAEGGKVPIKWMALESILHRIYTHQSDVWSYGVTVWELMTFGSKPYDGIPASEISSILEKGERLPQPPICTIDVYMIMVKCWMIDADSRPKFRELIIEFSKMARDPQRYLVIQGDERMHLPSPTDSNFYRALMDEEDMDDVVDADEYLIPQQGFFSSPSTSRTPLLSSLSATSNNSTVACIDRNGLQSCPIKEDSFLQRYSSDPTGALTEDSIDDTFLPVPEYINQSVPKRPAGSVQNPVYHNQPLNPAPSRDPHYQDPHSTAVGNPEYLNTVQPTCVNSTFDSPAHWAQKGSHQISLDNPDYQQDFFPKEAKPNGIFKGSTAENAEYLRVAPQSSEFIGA

[4] = target: Receptor tyrosine-protein kinase erbB-2 (Homo sapiens, UniProt P04626); type: functional
Sequence of Receptor tyrosine-protein kinase erbB-2 (P04626 whole entry): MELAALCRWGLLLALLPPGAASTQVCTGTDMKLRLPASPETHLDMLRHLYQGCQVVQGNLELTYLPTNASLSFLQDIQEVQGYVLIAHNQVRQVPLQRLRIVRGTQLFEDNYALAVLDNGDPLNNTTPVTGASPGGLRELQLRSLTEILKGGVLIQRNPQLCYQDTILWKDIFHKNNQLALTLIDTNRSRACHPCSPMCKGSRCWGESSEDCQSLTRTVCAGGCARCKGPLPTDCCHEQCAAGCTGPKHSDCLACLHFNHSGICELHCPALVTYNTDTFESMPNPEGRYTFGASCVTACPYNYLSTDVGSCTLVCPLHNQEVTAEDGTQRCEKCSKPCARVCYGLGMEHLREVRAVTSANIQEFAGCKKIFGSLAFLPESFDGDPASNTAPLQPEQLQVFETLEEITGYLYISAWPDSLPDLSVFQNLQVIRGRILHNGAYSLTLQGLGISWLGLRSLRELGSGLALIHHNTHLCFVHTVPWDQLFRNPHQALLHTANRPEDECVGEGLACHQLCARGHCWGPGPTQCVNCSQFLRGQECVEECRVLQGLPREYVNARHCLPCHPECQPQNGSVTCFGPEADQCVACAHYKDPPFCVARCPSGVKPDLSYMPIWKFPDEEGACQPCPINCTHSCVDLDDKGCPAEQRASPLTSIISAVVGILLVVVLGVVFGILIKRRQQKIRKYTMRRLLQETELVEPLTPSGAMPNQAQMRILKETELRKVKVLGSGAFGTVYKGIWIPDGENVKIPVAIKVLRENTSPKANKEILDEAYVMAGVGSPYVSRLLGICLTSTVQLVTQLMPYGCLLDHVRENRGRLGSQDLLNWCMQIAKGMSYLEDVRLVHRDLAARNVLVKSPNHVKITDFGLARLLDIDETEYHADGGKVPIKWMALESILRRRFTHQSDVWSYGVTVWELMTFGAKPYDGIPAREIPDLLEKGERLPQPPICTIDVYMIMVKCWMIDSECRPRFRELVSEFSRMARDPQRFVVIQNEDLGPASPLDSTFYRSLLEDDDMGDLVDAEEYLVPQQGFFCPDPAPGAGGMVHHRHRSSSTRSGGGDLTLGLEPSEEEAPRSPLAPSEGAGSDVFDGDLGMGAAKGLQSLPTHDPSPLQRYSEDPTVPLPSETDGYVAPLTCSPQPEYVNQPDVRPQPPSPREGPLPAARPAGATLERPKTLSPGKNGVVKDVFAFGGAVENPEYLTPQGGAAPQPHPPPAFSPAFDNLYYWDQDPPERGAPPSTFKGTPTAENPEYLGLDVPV

Acetylcholinesterase = Acetylcholinesterase (Homo sapiens, UniProt P22303); type: functional
Sequence of Acetylcholinesterase (P22303 whole entry): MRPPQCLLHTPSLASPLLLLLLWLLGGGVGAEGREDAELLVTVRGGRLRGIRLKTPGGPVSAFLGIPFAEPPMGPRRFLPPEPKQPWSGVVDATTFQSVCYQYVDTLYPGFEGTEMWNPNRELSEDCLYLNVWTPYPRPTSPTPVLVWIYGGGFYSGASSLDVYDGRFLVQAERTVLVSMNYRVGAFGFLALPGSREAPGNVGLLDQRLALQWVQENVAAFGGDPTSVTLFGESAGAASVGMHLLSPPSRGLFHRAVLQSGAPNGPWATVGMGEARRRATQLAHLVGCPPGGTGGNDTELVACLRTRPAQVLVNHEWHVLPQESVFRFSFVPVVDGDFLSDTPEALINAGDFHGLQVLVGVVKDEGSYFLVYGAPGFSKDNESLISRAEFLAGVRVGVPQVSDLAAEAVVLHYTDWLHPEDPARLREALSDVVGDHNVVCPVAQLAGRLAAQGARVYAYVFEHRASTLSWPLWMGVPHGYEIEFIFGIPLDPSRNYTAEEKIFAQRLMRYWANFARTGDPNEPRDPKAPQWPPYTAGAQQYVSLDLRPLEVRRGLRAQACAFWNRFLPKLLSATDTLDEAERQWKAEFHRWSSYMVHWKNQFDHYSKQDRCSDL

[5] = target: T4, Muscarinic acetylcholine receptor M4 (Homo sapiens, UniProt P08173)
T4 sequence (P08173 whole entry): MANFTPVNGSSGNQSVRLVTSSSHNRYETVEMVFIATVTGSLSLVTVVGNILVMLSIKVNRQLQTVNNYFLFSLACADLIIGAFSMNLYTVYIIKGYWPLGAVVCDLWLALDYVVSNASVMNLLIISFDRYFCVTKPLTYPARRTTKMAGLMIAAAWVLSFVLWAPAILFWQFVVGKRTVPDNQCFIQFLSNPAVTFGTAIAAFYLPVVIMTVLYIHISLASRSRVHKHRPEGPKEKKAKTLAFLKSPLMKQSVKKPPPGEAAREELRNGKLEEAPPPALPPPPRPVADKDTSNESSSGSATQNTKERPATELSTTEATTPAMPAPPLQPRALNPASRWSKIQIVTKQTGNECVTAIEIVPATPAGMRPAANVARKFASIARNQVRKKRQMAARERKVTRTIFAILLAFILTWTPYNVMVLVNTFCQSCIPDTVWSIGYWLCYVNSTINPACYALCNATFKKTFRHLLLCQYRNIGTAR

Cannabinoid receptor 1 = Cannabinoid receptor 1 (Homo sapiens, UniProt P21554); type: functional
Sequence of Cannabinoid receptor 1 (P21554 whole entry): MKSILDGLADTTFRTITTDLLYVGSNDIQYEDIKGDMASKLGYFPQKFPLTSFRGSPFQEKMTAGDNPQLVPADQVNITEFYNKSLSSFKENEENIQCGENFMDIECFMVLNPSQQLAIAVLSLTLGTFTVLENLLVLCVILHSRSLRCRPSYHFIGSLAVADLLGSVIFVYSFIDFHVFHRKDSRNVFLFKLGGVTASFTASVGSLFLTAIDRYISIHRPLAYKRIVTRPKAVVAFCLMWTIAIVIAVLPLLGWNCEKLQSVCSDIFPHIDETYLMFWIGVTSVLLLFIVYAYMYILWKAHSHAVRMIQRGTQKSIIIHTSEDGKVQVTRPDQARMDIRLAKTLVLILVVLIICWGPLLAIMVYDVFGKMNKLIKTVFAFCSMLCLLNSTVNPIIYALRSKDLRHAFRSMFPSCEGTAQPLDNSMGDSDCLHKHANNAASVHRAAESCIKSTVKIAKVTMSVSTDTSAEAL

[6] = target: T5, Alpha-1A adrenergic receptor (Homo sapiens, UniProt P35348)
T5 sequence (P35348 whole entry): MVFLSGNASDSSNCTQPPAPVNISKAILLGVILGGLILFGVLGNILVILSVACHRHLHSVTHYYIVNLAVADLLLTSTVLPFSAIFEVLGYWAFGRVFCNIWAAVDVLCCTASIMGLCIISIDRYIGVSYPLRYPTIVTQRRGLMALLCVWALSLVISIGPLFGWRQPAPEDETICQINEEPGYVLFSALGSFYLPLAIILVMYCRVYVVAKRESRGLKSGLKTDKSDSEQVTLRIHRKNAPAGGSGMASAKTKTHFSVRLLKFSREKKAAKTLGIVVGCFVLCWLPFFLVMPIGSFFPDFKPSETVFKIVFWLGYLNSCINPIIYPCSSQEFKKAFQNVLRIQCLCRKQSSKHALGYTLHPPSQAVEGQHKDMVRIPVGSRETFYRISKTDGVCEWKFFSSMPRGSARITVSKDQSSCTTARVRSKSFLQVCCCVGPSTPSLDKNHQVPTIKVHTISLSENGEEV

[7] = target: Synaptic vesicular amine transporter (Rattus norvegicus, UniProt Q01827); type: functional
Sequence of Synaptic vesicular amine transporter (Q01827 whole entry): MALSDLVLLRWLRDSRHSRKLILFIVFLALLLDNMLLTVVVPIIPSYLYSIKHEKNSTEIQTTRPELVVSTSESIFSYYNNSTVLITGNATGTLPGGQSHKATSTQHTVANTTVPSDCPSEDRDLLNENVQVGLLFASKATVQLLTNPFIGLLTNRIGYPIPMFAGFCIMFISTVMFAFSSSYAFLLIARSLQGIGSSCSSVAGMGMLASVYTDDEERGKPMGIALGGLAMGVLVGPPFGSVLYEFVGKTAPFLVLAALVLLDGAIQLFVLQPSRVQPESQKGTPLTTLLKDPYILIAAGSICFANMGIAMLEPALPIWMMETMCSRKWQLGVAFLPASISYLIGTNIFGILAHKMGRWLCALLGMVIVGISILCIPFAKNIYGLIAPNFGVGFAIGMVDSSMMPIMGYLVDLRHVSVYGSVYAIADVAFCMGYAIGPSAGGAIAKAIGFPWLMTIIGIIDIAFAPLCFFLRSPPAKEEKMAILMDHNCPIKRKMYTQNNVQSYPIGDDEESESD

[8] = target: T5, Alpha-1A adrenergic receptor; remark: listed apart in the source
D(1A) dopamine receptor [9] = target: T3, D(1A) dopamine receptor
Also: assay procedure not described here.

For `C[C@@H](NCCCc1cccc(C(F)(F)F)c1)c1cccc2ccccc12`, the AC50 (Androgen receptor) was > 30 µM and the AC50 (Histamine H1 receptor) was > 30 µM.

For `COc1ccc(CC2c3cc(OC)c(OC)cc3CC[N+]2(C)CCC(=O)OCCCCCOC(=O)CC[N+]2(C)CCc3cc(OC)c(OC)cc3C2Cc2ccc(OC)c(OC)c2)cc1OC` (stereo not drawn), the AC50 (Androgen receptor) was > 30 µM and the AC50 [1] was 18.9 µM.

`CCN1CCN(Cc2ccc(Nc3ncc(F)c(-c4cc(F)c5nc(C)n(C(C)C)c5c4)n3)nc2)CC1` [ABEMACICLIB] was tested, and the AC50 (Androgen receptor) was > 30 µM, the AC50 (D(1A) dopamine receptor [2]) was > 30 µM and the AC50 [3] was 9.5 µM. For the same molecule, the AC50 [4] was > 30 µM and the AC50 (Acetylcholinesterase) was > 30 µM.

In the case of `CCCN(CCC)C(=O)Cc1c(-c2ccc(Cl)cc2)nc2ccc(Cl)cn12` [ALPIDEM], the AC50 [5] is reported as > 10 µM, the AC50 (Cannabinoid receptor 1) is reported as > 10 µM and the AC50 [6] is reported as > 10 µM.

In the case of `COc1ccccc1Oc1c(NS(=O)(=O)c2ccc(C(C)(C)C)cc2)nc(-c2ncccn2)nc1OCCO` [BOSENTAN], the AC50 (Histamine H1 receptor) is reported as > 30 µM.

`COc1cc2nccc(Oc3ccc(NC(=O)C4(C(=O)Nc5ccc(F)cc5)CC4)cc3)c2cc1OC` [CABOZANTINIB] was tested, and the AC50 (Androgen receptor) was > 30 µM, the AC50 (D(1A) dopamine receptor [2]) was 13 µM and the AC50 [4] was 6.2 µM. For the same molecule, the AC50 (Acetylcholinesterase) was > 30 µM.

With `COc1ccccc1OCCNCC(O)COc1cccc2[nH]c3ccccc3c12` (stereo not drawn) [CARVEDILOL] the AC50 (Androgen receptor) was > 30 µM, the AC50 (Cannabinoid receptor 1) was > 10 µM and the AC50 [1] was > 30 µM. For the same molecule, the AC50 [6] was 0.0099 µM.

For `C[C@@H](Oc1cc(-c2cnn(C3CCNCC3)c2)cnc1N)c1c(Cl)ccc(F)c1Cl` [CRIZOTINIB], the AC50 (Androgen receptor) was > 30 µM and the AC50 (D(1A) dopamine receptor [2]) was > 30 µM.

In the case of `CC(C)N(CCC(C(N)=O)(c1ccccc1)c1ccccn1)C(C)C` (stereo not drawn) [DISOPYRAMIDE], the AC50 (Histamine H1 receptor) is reported as > 30 µM and the AC50 [1] is reported as 29.7 µM.

`C[C@H]1c2cccc(O)c2C(=O)C2=C(O)[C@]3(O)C(=O)C(C(N)=O)=C(O)[C@@H](N(C)C)[C@@H]3[C@@H](O)[C@@H]21` [DOXYCYCLINE] was tested, and the AC50 [6] was > 10 µM.

In the case of `OC[C@H]1O[C@@H](c2ccc(Cl)c(Cc3ccc(O[C@H]4CCOC4)cc3)c2)[C@H](O)[C@@H](O)[C@@H]1O` [EMPAGLIFLOZIN], the AC50 [7] is reported as 16 µM.

`C#C[C@]1(O)CC[C@H]2[C@@H]3CCC4=CC(=O)CC[C@@H]4[C@H]3C(=C)C[C@@]21CC` [ETONOGESTREL] was tested, and the AC50 [8] was > 30 µM and the AC50 (D(1A) dopamine receptor [9]) was > 30 µM.

For `O=C(O)CO` [GLYCOLIC ACID], the AC50 [8] was > 30 µM and the AC50 (D(1A) dopamine receptor [9]) was > 30 µM.

With `CC(C)Cc1ccc(C(C)C(=O)O)cc1` (stereo not drawn) [IBUPROFEN] the AC50 (Cannabinoid receptor 1) was > 10 µM and the AC50 [6] was > 10 µM.

`CN(CC1(C)CCCO1)S(=O)(=O)c1ccc(Cl)c(S(N)(=O)=O)c1` (stereo not drawn) [MEFRUSIDE] was tested, and the AC50 [8] was > 30 µM and the AC50 (D(1A) dopamine receptor [9]) was > 30 µM.

In the case of `CC(=O)O[C@]1(C(C)=O)CC[C@H]2[C@@H]3C=C(C)C4=CC(=O)CC[C@@H]4[C@H]3CC[C@@]21C` [NOMEGESTROL ACETATE], the AC50 (Androgen receptor) is reported as > 30 µM.

`CCOC(=O)c1c(C)cc2c(CO)n[nH]c(=O)c2c1C` [OXAGRELATE] was tested, and the AC50 [8] was > 30 µM and the AC50 (D(1A) dopamine receptor [9]) was > 30 µM.
